Values quoted from earlier work in PubChem BioAssay AID1259409 (Chemical Carcinogenesis Research Information System (CCRIS), 2018).

Tested on: rodent chemically induced tumor inhibition, incidence and multiplicity
Assay: CCRIS tumor inhibitor studies

Structure (SMILES): C[C@]12CCC(=O)C=C1CC[C@@H]1[C@@H]2[C@@H](O)C[C@@]2(C)[C@H]1CC[C@]2(O)C(=O)CO
- tumour outcome (control, treated, inhibition, significance) (Carcinogen: METHYLAZOXYMETHANOL ACETATE, 592-62-1, Dose [Inhibitor]: 7.5 MG/KG BW DAILY FOR 3 WK STARTING 21 WK POST CARCINOGEN TREATMENT (STUDY DURATION: 30 WK), Route [Inhibitor]: INTRARECTAL, Species: RAT, Strain/Sex: DONRYU/MALE, Target Tissue: Type of Lesion: LARGE INTESTINE: ADENOCARCINOMA, Dose [Carcinogen]: 20 MG/KG BW 1/WK FOR 6 WK, Promoter: NONE USED): 19/23 (83%), 16/29 (55%), 34%, p<0.05
- tumour outcome (control, treated, inhibition, significance) (Carcinogen: METHYLAZOXYMETHANOL ACETATE, 592-62-1, Dose [Inhibitor]: 7.5 MG/KG BW DAILY FOR 3 WK STARTING 21 WK POST CARCINOGEN TREATMENT (STUDY DURATION: 30 WK), Route [Inhibitor]: INTRARECTAL, Species: RAT, Strain/Sex: DONRYU/MALE, Target Tissue: Type of Lesion: SMALL INTESTINE: ADENOCARCINOMA, Dose [Carcinogen]: 20 MG/KG BW 1/WK FOR 6 WK, Promoter: NONE USED): 10/23 (43%), 4/29 (14%), 67%, p<0.05
- tumour outcome (control, treated, inhibition, significance) (Dose [Inhibitor]: 0, 1.5 MG 2/WK FOR 10 WK (STUDY DURATION: 65 WK), Route [Inhibitor]: INTRAMUSCULAR, Species: RAT, Strain/Sex: F344/MALE, Target Tissue: Type of Lesion: LIVER: HEPATOCELLULAR CARCINOMA, Dose [Carcinogen]: 100 UG 2/WK FOR 10 WK, Promoter: NONE USED): 12/13 (92%), 15/24 (63%), 32%, p<0.05

Structure (SMILES): C=C1/C(=C\C=C2/CCC[C@]3(C)[C@@H]([C@H](C)CCCC(C)C)CC[C@@H]23)C[C@@H](O)C[C@@H]1O
- tumour outcome (control, treated, inhibition, significance) (Carcinogen: N-METHYL-N'-NITRO-N-NITROSOGUANIDINE [70-25-7], Dose [Inhibitor]: 0.04 UG IN MEDIUM CHAIN TRIGLYCERIDE 3X/WK FOR 24 WK BEGINNING IMMEDIATELY POST LAST CARCINOGEN DOSE (STUDY DURATION: 48, Route [Inhibitor]: INTRAGASTRIC, Species: RAT, Strain/Sex: WISTAR WKY/STD/MALE, Target Tissue: Type of Lesion: STOMACH AND SMALL INTESTINE: TUMOR, Dose [Carcinogen]: 0.01% IN DRINKING WATER FOR 24 WK (STUDY DURATION: 48 WK), Promoter: NONE): 16/30 (53%), 8/30 (27%), 49%, p<0.05
- tumour outcome (control, treated, inhibition, significance) (Carcinogen: N-METHYL-N'-NITRO-N-NITROSOGUANIDINE, 70-25-7, Dose [Inhibitor]: 0, 0.04 UG 3/WK FOR 24 WK BEGINNING POST CARCINOGEN TREATMENT (STUDY DURATION: 48 WK), Route [Inhibitor]: GAVAGE, Species: RAT, Strain/Sex: WISTAR/MALE, Target Tissue: Type of Lesion: GASTROINTESTINAL TRACT: TUMOR, Dose [Carcinogen]: 0.01% IN DRINKING WATER FOR 24 WK, Promoter: NONE USED): 16/30 (53%), 8/30 (27%), 49%, p<0.05
- tumour outcome (control, treated, inhibition, significance) (Carcinogen: N-METHYL-N-NITROSOUREA, 684-93-5, Dose [Inhibitor]: 0, 0.04 UG IN 0.2 ML OF MEDIUM CHAIN TRIGLYCERIDE 3/WK FOR 40 WK (STUDY DURATION: 46 WK), Route [Inhibitor]: INTRAGASTRIC, Species: RAT, Strain/Sex: F344/FEMALE, Target Tissue: Type of Lesion: COLON: TUMOR, Dose [Carcinogen]: 1 MG IN 0.5 ML DISTILLED WATER 1/WK FOR 40 WK, Promoter: NONE USED): 21/24 (88%), 12/25 (48%), 45%, p<0.01
- tumour outcome (control, treated, inhibition, significance) (Carcinogen: N-METHYL-N-NITROSOUREA, 684-93-5, Dose [Inhibitor]: 0.04 UG IN 0.2 ML OF MEDIUM CHAIN TRIGLYCERIDE FOLLOWING EACH PROMOTER DOSE 3/WK FOR 48 WK (STUDY DURATION: 50 WK), Route [Inhibitor]: GAVAGE, Species: RAT, Strain/Sex: F344/FEMALE, Target Tissue: Type of Lesion: COLON: ADENOMA OR ADENOCARCINOMA OR LEIOMYOSARCOMA, Dose [Carcinogen]: 2.5 MG IN 0.5 ML DISTILLED WATER TWICE IN 1 WK, Promoter: LITHOCHOLIC ACID, 434-13-9): 15/32 (47%), 6/30 (20%), 57%, p<0.05

Structure (SMILES): O=C(O)c1cc(=O)[nH]c(=O)[nH]1
- tumour outcome (control, treated, inhibition, significance) (Carcinogen: URETHANE, 51-79-6, Dose [Inhibitor]: 0.1 MG/GM BW AS A 1% SUSPENSION IN DISTILLED WATER ONCE 14 WK OF AGE SIMULTANEOUS WITH CARCINOGEN TREATMENT (STUDY DURAT, Route [Inhibitor]: INTRAPERITONEAL, Species: MOUSE, Strain/Sex: SWR/MALE, Target Tissue: Type of Lesion: LUNG: ADENOMA, Dose [Carcinogen]: 1 MG/G BW IN DISTILLED WATER ONCE, Promoter: NONE USED): 100%, 100%, 0%, not significant
- tumour outcome (control, treated, inhibition, significance) (Carcinogen: URETHANE, 51-79-6, Dose [Inhibitor]: 0.1 MG/GM BW AS A 1% SUSPENSION IN DISTILLED WATER TWICE AT 13 WK OF AGE GIVEN 24 HR APART STARTING 24 HR PRIOR TO CARCI, Route [Inhibitor]: INTRAPERITONEAL, Species: MOUSE, Strain/Sex: SWR/MALE, Target Tissue: Type of Lesion: LUNG: ADENOMA, Dose [Carcinogen]: 0.5 MG/GM BW IN DISTILLED WATER ONCE AT SAME TIME AS LAST AGENT TREATMENT, Promoter: NONE USED): 83%, 100%, -20%, not significant
- tumour outcome (control, treated, inhibition, significance) (Carcinogen: URETHANE, 51-79-6, Dose [Inhibitor]: 0.1 MG/GM BW AS A 1% SUSPENSION IN DISTILLED WATER TWICE AT 22 WK OF AGE GIVEN 24 HR APART STARTING 24 HR PRIOR TO CARCI, Route [Inhibitor]: INTRAPERITONEAL, Species: MOUSE, Strain/Sex: SWR/MALE, Target Tissue: Type of Lesion: LUNG: ADENOMA, Dose [Carcinogen]: 0.5 MG/GM BW IN DISTILLED WATER ONCE AT SAME TIME AS LAST AGENT TREATMENT, Promoter: NONE USED): 71%, 71%, 0%, not significant

Structure (SMILES): CCCCCCCCCCCC(=O)OCC(COC(=O)CCCCCCCCCCC)OC(=O)CCCCCCCCCCC
- tumour outcome (control, treated, inhibition, significance) (Carcinogen: DIMETHYLBENZANTHRACENE, 57-97-6, Dose [Inhibitor]: APPLIED 3 MIN POST EACH PROMOTER DOSE 3/WK FOR 20 WK BEGINNING 3 D POST CARCINOGEN DOSE (STUDY DURATION: 20 WK), Route [Inhibitor]: DERMAL, Species: MOUSE, Strain/Sex: SWISS/?, Target Tissue: Type of Lesion: SKIN: TUMOR, Dose [Carcinogen]: 250 UG/0.25 ML ONCE, Promoter: CROTON OIL, 8001-28-3): 100%, 0%, 100%, not calculated

Structure (SMILES): C=CCN=C=S
- tumour outcome (control, treated, inhibition, significance) (Carcinogen: 4-(METHYLNITROSAMINO)-1-(3-PYRIDYL)-1-BUTANONE, 64091-91-4, Dose [Inhibitor]: 0, 1 UMOL ONCE 2 HR PRIOR TO CARCINOGEN DOSE (STUDY DURATION: 16 WK), Route [Inhibitor]: GAVAGE, Species: MOUSE, Strain/Sex: STRAIN-A/FEMALE, Target Tissue: Type of Lesion: LUNG: ADENOMA, Dose [Carcinogen]: 10 UMOL IN 0.1 ML SALINE ONCE, Promoter: NONE USED): 100%, 100%, 0%, not significant
- tumour outcome (control, treated, inhibition, significance) (Carcinogen: 4-(METHYLNITROSAMINO)-1-(3-PYRIDYL)-1-BUTANONE, 64091-91-4, Dose [Inhibitor]: 0, 5 UMOL ONCE 2 HR PRIOR TO CARCINOGEN DOSE (STUDY DURATION: 16 WK), Route [Inhibitor]: GAVAGE, Species: MOUSE, Strain/Sex: STRAIN-A/FEMALE, Target Tissue: Type of Lesion: LUNG: ADENOMA, Dose [Carcinogen]: 10 UMOL IN 0.1 ML SALINE ONCE, Promoter: NONE USED): 100%, 100%, 0%, not significant

Structure (SMILES): COc1cc2ccc(=O)oc2cc1O
- tumour outcome (control, treated, inhibition, significance) (Carcinogen: 7,12-DIMETHYLBENZ[A]ANTHRACENE, 57-97-6, Dose [Inhibitor]: 0.068 MMOL/G IN DIET FOR 8 D BEGINNING 1 WK PRIOR TO CARCINOGEN DOSE (STUDY DURATION: 23 WK), Route [Inhibitor]: ORAL, Species: RAT, Strain/Sex: SPRAGUE-DAWLEY/FEMALE, Target Tissue: Type of Lesion: MAMMARY GLAND: TUMOR, Dose [Carcinogen]: 12 MG IN 1.0 ML OLIVE OIL ONCE, Promoter: NONE USED): 100%, 78%, 22%, not significant
- tumour outcome (control, treated, inhibition, significance) (Carcinogen: BENZO[A]PYRENE, 50-32-8, Dose [Inhibitor]: 0.034 MMOL/G IN DIET BEGINNING 1 WK PRIOR TO FIRST CARCINOGEN DOSE AND CONTINUING FOR 3 D POST LAST CARCINOGEN DOSE FOR, Route [Inhibitor]: ORAL, Species: MOUSE, Strain/Sex: ICR/HA/FEMALE, Target Tissue: Type of Lesion: FORESTOMACH: TUMOR, Dose [Carcinogen]: 1 MG IN 0.2 ML CORN OIL 2/WK FOR 4 WK, Promoter: NONE USED): 100%, 100%, 0%, not significant
